# Laboratory results as given in PubChem BioAssay AID192 (DTP/NCI, 2004).
# Several values for one entry are separate records, joined by “and”; a condition that tells them apart may be missing. Equal values may be shown once. Inconclusive results and toxic doses are left out.
# Tested on: BDF1 mice, B16 melanoma ip, median survival T/C
# Experiment: NCI In Vivo Anticancer Drug Screen. Data for tumor model B16 Melanoma (intraperitoneal) in B6D2F1 (BDF1) mice
# Conditions: endpoint: median survival time, higher = longer survival
# Procedure, shortened: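 The ratio T/C compares compound-treated mice with vehicle-treated controls, using survival or tumor size as the endpoint in a transplantable tumor model.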
# [1] = dose: 12.5 mg/kg/injection, schedule: Q01DX009 (ip), vehicle: Klucel (hydroxypropylcellulose) (HPC)
# [2] = dose: 25.0 mg/kg/injection, schedule: Q01DX009 (ip), vehicle: Klucel (hydroxypropylcellulose) (HPC)
# [3] = dose: 2.0 mg/kg/injection, schedule: Q01DX009 (ip), vehicle: saline
# [4] = dose: 25.0 mg/kg/injection, schedule: Q01DX009 (ip), vehicle: saline
# [5] = dose: 50.0 mg/kg/injection, schedule: Q01DX009 (ip), vehicle: saline
# [6] = dose: 100.0 mg/kg/injection, schedule: Q01DX009 (ip), vehicle: Klucel (hydroxypropylcellulose) (HPC)
# [7] = dose: 6.25 mg/kg/injection, schedule: Q01DX009 (ip), vehicle: Klucel (hydroxypropylcellulose) (HPC)
smiles,measurement,setting,value
CCOC(=O)/C(C(C)=O)=C(/O)c1ccc(OC(F)(F)C(F)Cl)cc1OC(F)(F)C(F)Cl.CCOC(=O)/C(C(C)=O)=C(/O)c1ccc(OC(F)(F)C(F)Cl)cc1OC(F)(F)C(F)Cl.[Cu] (stereo not drawn),T/C,[1],89 % of control
same,T/C,[2],88 % of control
C[C@H]1[C@H](O)[C@H]2[C@@H](CCC3=CC(=O)CC[C@@]32C)[C@@H]2CC[C@H](O)[C@@]12C,T/C,"dose: 100.0 mg/kg/injection, schedule: Q01DX009 (ip), vehicle: saline with Tween-80",94 % of control
same,T/C,"dose: 200.0 mg/kg/injection, schedule: Q01DX009 (ip), vehicle: saline with Tween-80",100 % of control
CCN(CC)CCCC(C)NS(=O)(=O)c1cccc2c(N(C)C)cccc12 (stereo not drawn),T/C,"dose: 6.25 mg/kg/injection, schedule: Q01DX009 (ip), vehicle: water",104 % of control
same,T/C,"dose: 12.5 mg/kg/injection, schedule: Q01DX009 (ip), vehicle: water",104 % of control
same,T/C,"dose: 25.0 mg/kg/injection, schedule: Q01DX009 (ip), vehicle: water",97 % of control
same,T/C,"dose: 50.0 mg/kg/injection, schedule: Q01DX009 (ip), vehicle: water",98 % of control
same,T/C,"dose: 100.0 mg/kg/injection, schedule: Q01DX009 (ip), vehicle: water",92 % of control
CCC1=C(C[C@H]2NCCc3cc(OC)c(OC)cc32)C[C@H]2c3cc(OC)c(OC)cc3CCN2C1,T/C,"dose: 2.0 mg/kg/injection, schedule: Q01DX009 (ip), vehicle: Klucel (hydroxypropylcellulose) (HPC)",114 % of control
same,T/C,[3],103 % of control and 111 % of control
same,T/C,"dose: 4.0 mg/kg/injection, schedule: Q01DX009 (ip), vehicle: saline",106 % of control and 107 % of control
same,T/C,"dose: 5.0 mg/kg/injection, schedule: Q01DX005 (ip), vehicle: saline",118 % of control
same,T/C,"dose: 5.0 mg/kg/injection, schedule: Q01DX009 (ip), vehicle: Klucel (hydroxypropylcellulose) (HPC)",116 % of control
Nc1nc2n[nH]nc2c(=O)[nH]1,T/C,[4],108 % of control
same,T/C,[5],108 % of control
same,T/C,"dose: 100.0 mg/kg/injection, schedule: Q01DX009 (ip), vehicle: saline",113 % of control
same,T/C,"dose: 200.0 mg/kg/injection, schedule: Q01DX009 (ip), vehicle: saline",111 % of control
CCN(C(=O)Nc1ccccc1OC)c1ccccc1,T/C,[6],89 % of control
COC1C(C)OC(OC2CC(C)(O)Cc3cc4c(c(O)c32)C(=O)c2c(O)cc3c(c2C4=O)OC2OC3(C)C(O)C(N(C)C)C2O)C(OC)C1(C)OC (stereo not drawn),T/C,"dose: 0.16 mg/kg/injection, schedule: Q01DX009 (ip), vehicle: other",95 % of control
same,T/C,"dose: 0.63 mg/kg/injection, schedule: Q01DX009 (ip), vehicle: other",159 % of control
same,T/C,"dose: 5.4 mg/kg/injection, schedule: Q04DX003 (ip), vehicle: lactic acid",195 % of control
same,T/C,"dose: 9.0 mg/kg/injection, schedule: Q04DX003 (ip), vehicle: lactic acid",171 % of control
NC1CCC(CCCC2CCCC2)CC1 (stereo not drawn),T/C,[7],96 % of control
same,T/C,[1],86 % of control
same,T/C,[2],89 % of control
O=c1[nH]c2ccccc2n1C1CCN(CCCC(c2ccc(F)cc2)c2ccc(F)cc2)CC1,T/C,"dose: 1.56 mg/kg/injection, schedule: Q01DX009 (ip), vehicle: Klucel (hydroxypropylcellulose) (HPC)",102 % of control
same,T/C,"dose: 3.12 mg/kg/injection, schedule: Q01DX009 (ip), vehicle: Klucel (hydroxypropylcellulose) (HPC)",100 % of control
same,T/C,[7],100 % of control
same,T/C,[1],94 % of control
same,T/C,[2],105 % of control
same,T/C,"dose: 50.0 mg/kg/injection, schedule: Q01DX009 (ip), vehicle: Klucel (hydroxypropylcellulose) (HPC)",87 % of control
same,T/C,[6],87 % of control
COC(C(=O)C(O)C(C)O)C1Cc2cc3cc(OC4CC(OC(C)=O)C(OC5CC(O)C(OC)C(C)O5)C(C)O4)cc(O)c3c(O)c2C(=O)C1OC1CC(OC2CC(OC3CC(C)(O)C(OC(=O)C(C)C)C(C)O3)C(O)C(C)O2)C(O)C(C)O1 (stereo not drawn),T/C,"dose: 0.25 mg/kg/injection, schedule: Q01DX009 (ip), vehicle: saline with Tween-80",158 % of control
same,T/C,"dose: 0.5 mg/kg/injection, schedule: Q01DX009 (ip), vehicle: saline",154 % of control and 170 % of control
same,T/C,"dose: 1.0 mg/kg/injection, schedule: Q01DX009 (ip), vehicle: saline",173 % of control and 183 % of control
same,T/C,[3],173 % of control and 178 % of control
Cc1cccc(OCC(=O)O)c1,T/C,"dose: 6.25 mg/kg/injection, schedule: Q01DX009 (ip), vehicle: saline with Tween-80",106 % of control
same,T/C,"dose: 12.5 mg/kg/injection, schedule: Q01DX009 (ip), vehicle: saline with Tween-80",93 % of control
same,T/C,"dose: 25.0 mg/kg/injection, schedule: Q01DX009 (ip), vehicle: saline with Tween-80",86 % of control
OC12CCC[N+]1(Cc1ccccc1)CCC2 (stereo not drawn),T/C,"dose: 12.5 mg/kg/injection, schedule: Q01DX009 (ip), vehicle: saline",109 % of control
same,T/C,[4],109 % of control
same,T/C,[5],102 % of control
